Assay results as given in patent publication US7998940B2, “Aptamers to von Willebrand factor and their use as thrombotic disease therapeutics” (Archemix Corp., priority 2004, dated 2011).
Entries after “also recorded” stand apart in the source; their conditions may differ.

Columns and labels:
[1] = test system: intra-arterial thrombosis of carotid arteries; assay: cynomolgus macaque electrolytic thrombosis model; type: in vivo, cynomolgus monkeys
Procedure: A study was performed to test the efficacy of ARC1779 (SEQ ID NO 320) in inhibiting intra-arterial thrombosis in a well documented non-human primate electrolytic thrombosis model. See, e.g., Rote et al., Stroke, 1994: 25, 1223-1233.
Each animal was anesthetized prior to surgical preparation, intubated and maintained in anesthesia with isoflurane inhalant anesthetic to effect delivered through a volume-regulated respirator. An intravenous catheter was also placed in a peripheral vein for administration of lactated Ringer's solution during the procedure.
A catheter was placed in the femoral artery of each animal for continuous monitoring of arterial blood pressure. Similarly a catheter was placed in the femoral vein for blood sample collection. Each carotid artery was instrumented with a Doppler flow probe connected to a flow meter. The flow probes were placed around the artery at a point proximal to the insertion of the intra-arterial electrode and stenosis. The stenosis was placed around each carotid artery so that the […] was reduced by approximately 50% to 60% without altering the mean […]. Blood flow in the carotid arteries was monitored and recorded continuously throughout the observation periods.
Electrolytic injury to the intimal surface of each carotid artery was accomplished via placement of an intravascular electrode. Each electrode was connected to the positive pole of a constant current device and cathode connected to a distant subcutaneous site. Continuous current was delivered to each vessel for a period of 3 hours or for 30 minutes after complete occlusion, whichever was shorter.
Once the electrodes were placed on the right carotid artery (“RCA”) the animal was administered the test article as indicated in Table 32 above. Approximately 15 minutes after test article administration, the electrical current was applied at 100 μA. Blood samples and CBT measurements were collected at the time points specified in Blood Sample Collection Schedule as indicated in FIG. 31. The current was terminated ˜30 minutes after the blood flow signal remained stable at zero flow (which indicates an occlusive thrombus had been formed at the site) or after 180 minutes of electrical stimulation. Approximately 195 minutes after the test article was administered, the left carotid artery (“LCA”) had electrical current administered in a similar fashion as previously described for the RCA. After termination of all surgical procedures and sample collection each animal was euthanized.
An additional 10 cynomolgus monkeys (2.5 to 3.5 kg) were divided into treatment groups 5 to 7 and were treated according the regimen indicated in Table 33 below.
The animal procedure for each treatment group in Table 33 was conducted as reported for the animals in Example 5B.

[2] = cutaneous bleeding time (CBT) in cynomolgus macaques; type: in vivo; details: in words
Procedure: (§1) Following IV administration, blood was collected percutaneously at various time points post-dose for PK and PD analysis. PD effect of ARC1779 on platelet function was determined by PFA-100 assays and effect of ARC1779 on bleeding was measured by CBT time. In addition, plasma samples were analyzed by HPLC for quantitation of ARC1779 levels. PK parameter estimates were determined by 2-compartment analysis.
C. macaques were dosed at 0.5 mg/kg IV bolus with ARC1779 (SEQ ID NO 320). PFA-100 closure time, BIPA and cutaneous bleeding time (“CBT”) were all measured as a function of time throughout the studies. BIPA and PFA-100 closure times were measured as described in previously in Example 3. Cutaneous bleeding times were measured using standard protocols described as follows.
A blood pressure cuff was applied to the biceps region of the forearm to be tested and inflated to maintain a constant pressure of 40 mmHg. Using a Surgicutt® Automated Incision Device (ITC, Edison, N.J.), a longitudinal incision was made over the lateral aspect of the volar surface of the forearm distal to the antecubital crease. A stopwatch was started at the time of incision. […] Bleeding time is determined to within 30 seconds of the time when blood is no longer wicked onto the paper. […]

[3] = pharmacokinetics of ARC1779 after 0.5 mg/kg IV bolus in cynomolgus macaques (HPLC); type: in vivo; details: 0.5 mg/kg single IV bolus, 2-compartment analysis
Procedure: -PK/PD correlation of ARC1779 was evaluated in three cynomolgus macaques after a single intravenous (IV) bolus dose at 0.5 mg/kg. ARC1779 levels in the plasma were correlated to PD effects of ARC1779 in inhibition of platelet function or prolongation of cutaneous bleeding time (CBT).
as §1

[4] = test system: rabbit vWF A1 domain (SEQ ID NO 6); assay: dot blot KD determination, rabbit vWF A1 domain; type: binding; details: dot blot, 12 point protein titration, 1xDPBS plus 0.1 mg/mL BSA, room temperature, 30 minutes
Chain of rabbit vWF A1 domain (SEQ ID NO 6) (as listed by the source): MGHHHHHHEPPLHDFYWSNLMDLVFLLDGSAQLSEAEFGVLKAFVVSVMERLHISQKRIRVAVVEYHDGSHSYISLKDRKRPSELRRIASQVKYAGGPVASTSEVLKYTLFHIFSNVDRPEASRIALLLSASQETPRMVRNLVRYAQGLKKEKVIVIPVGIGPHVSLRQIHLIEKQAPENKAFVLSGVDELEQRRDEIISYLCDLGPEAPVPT
Procedure: A 12 point protein titration was used in the dot blot assay (300 nM, 100 nM, 30 nM, 10 nM, 3 nM, 1 nM, 300 pM, 100 pM, 30 pM, 10 pM, 3 pM, 0 pM) in 1×DPBS plus 0.1 mg/mL BSA at room temperature for 30 minutes.

For “PEG20K-NH2-mGmCmGmUdGdCdAmGmUmGmCmCmUmUmCmGmGmCdCmG-s-TmGdCdGdGTmGmCdCmUdCdCmGmUdCmAmCmGmC-3T [ARC1779]”, which thrombus formation ([1]; in words, sequential 180-minute electrical injuries to the carotid arteries) is on record?
Its thrombus formation is “inhibited thrombus formation”.

What about the “carotid arteries that developed occlusive thrombi” value ([1]; infusion targeted to constant plasma level of 300 nM) of the same molecule?
Its value is 100%.

What about the “carotid arteries that developed occlusive thrombi” value ([1]; infusion targeted to constant plasma level of 500 nM) of the same molecule?
The value was 63%.

What about the “carotid arteries that developed occlusive thrombi” value ([1]; infusion targeted to constant plasma level of 750 nM) of the same molecule?
The value was 25%.

What about the “carotid arteries that developed occlusive thrombi” value ([1]; infusion targeted to constant plasma level of 1000 nM) of the same molecule?
The value was 0%.

And the “effect on cutaneous bleeding time” value ([2]; 0.5 mg/kg single IV bolus, 0.5 mg/kg)?
The value was “minimal effect; also recorded: very little increase”.

And the “cutaneous bleeding time in the electrolytic thrombosis model” value ([2]; FIG. 34, various doses and time points)?
The value was “at some doses and/or time points in this animal model prolonged CBT was observed, while at other doses and time points CBT was not prolonged”.

And the “distribution half-life (t1/2α)” value [3]?
The value was “approximately 1.0 hour”.

B1: AMX237.G6: DNA SELEX 2 aptamer clone (nucleic acid)
DNA: CTACCTACGATCTGACTAGCGTGCAGTGCCTATTCCAGGCCGTGCGGTGCCTCCGTCACGCTTACTCTCATGTAGTTCC
modifications: DNA, backbone and methylation of C not given here
notes: DNA SELEX 2 aptamer clone
For B1, which Kd [4] is on record?
The Kd was 0.047 µM.
